Results as given in PMC3261944, “The in Vitro Estrogenic Activities of Polyfluorinated Iodine Alkanes” (Environmental Health Perspectives, 2011).
Entries after “also recorded” stand apart in the source; their conditions may differ.

What was measured:
[1] = tested on: MCF-7BUS cells; assay: E-screen assay (MCF-7BUS cell proliferation, WST-1); format: cell-based, Human; conditions: for E-screen Maximum induction (%): percentage of the maximum proliferation effect of tested compound to that of E2, 6 days exposure; for Proliferation / estrogenic effect in the E-screen assay (in words): within the tested concentration ranges
Protocol: (§1) Cell culture. Human MCF-7BUS breast adenocarcinoma cells and MVLN cells were cultured in 100-mm culture dishes in a humidified atmosphere of 5% CO2 at 37°C. Cells were maintained in Dulbecco’s modified Eagle’s medium (DMEM)/F-12 (Hyclone, Logan, UT, USA) containing 10% fetal bovine serum, 100 U/mL streptomycin-penicillin, 2 mM L-glutamine, and 1% insulin-transferrin-selenium supplement (all from Gibco, Grand Island, NY, USA).
E-screen assay. MCF-7BUS cells were kindly provided by A.M. Soto and C. Sonnenschein (Tufts University School of Medicine, Boston, MA, USA). In response to ERα agonists, the mitotic effect leads to the proliferation of MCF-7BUS cells. […] Cells were trypsinized and plated into the interior 60 wells of 96-well plates at the density of 3,000 cells/well. Before each experiment, cells were starved in steroid-free (SF) medium for 48 hr to minimize the basal hormonal activity during assays. SF medium consisted of phenol red–free DMEM/F-12 (Hyclone) supplemented with 5% dextran-charcoal-treated fetal bovine serum (Hyclone), 100 U/mL streptomycin-penicillin, and 2 mM L-glutamine. […] We used a WST-1 proliferation kit (Roche Diagnostics, Mannheim, Germany) to assess proliferation after 6 days of exposure according to the kit instructions. The WST-1 assay is based on the enzymatic cleavage of the tetrazolium salt WST-1 to formazan by cellular mitochondrial dehydrogenases present in viable cells. The absorbance of the WST-1 solution was detected by a microplate reader (Varioskan Flash, Thermo Fisher Scientific, Waltham, MA, USA) at 450 nm, with the reference wave length at 690 nm. The cell proliferation effect was calculated from the solvent control (0.1% ethanol)-corrected absorbance and expressed as the percentage of maximal absorbance of the positive control. Three replicates were used in each experiment.
(§2) The concentration–response analyses were performed with four-parameter logistic curve regression analysis according to the following formula:
(§3) y = minimum + (maximum – minimum) ÷ [1 + (x/EC50)^Hill slope], [1]
(§4) where y is the response value, x is the log concentration of the test compound, and EC50 is the concentration that induces half of the maximum proliferation effect or luciferase activity.
EC50 values were calculated from this nonlinear regression model. EC20 were calculated as […]

[2] = tested on: TFF1 (pS2); assay: Expression of estrogen-responsive gene TFF1 (quantitative RT-PCR); format: cell-based, Human; conditions: MCF-7 cells, 48 hr, vs 0.1% ethanol; 50 μM PFBI, PFHxI, PFOI, PFBDI, PFOA, PFOC, PFOB, 1-iodohexane, 4:2 FTI, 6:2 FTI; 40 μM PFDI, PFDoI, PFODI, 8:2 FTI, 10:2 FTI; 20 μM PFHxDI; 100 pM E2
Protocol: (§5) RNA isolation and reverse transcription polymerase chain reaction (RT-PCR). MCF-7BUS cells were seeded in six-well plates at the density of 1.0 × 10^6 cells per well, starved in SF medium for 48 hr, and exposed to test compounds for 48 hr. First, cells were rinsed twice with cold phosphate-buffered saline, and total RNA was isolated using Trizol reagent (Invitrogen Inc., Carlsbad, CA, USA) following the manufacturer’s protocol. The 260 nm and 280 nm absorbance reading of total RNA was performed using a Nanodrop spectrophotometer (Thermo Scientific, Waltham, MA, USA). The concentration of RNA was quantified by the reading at 260 nm.
(§6) We used a two-step quantitative RT-PCR to quantify gene expression. Total RNA was converted to cDNA using M-MLV (Moloney murine leukemia virus) reverse transcriptase (Promega, Madison, WI, USA) with oligo dT(15), following the manufacturer’s instructions. The final cDNA solution was diluted five times with DNase/RNase-free water (Gibco). Quantitative PCR was performed with a Stratagene MX3005 thermal cycler (Stratagene, La Jolla, CA, USA). PCR reaction mixtures (25 μL) contained 12.5 μL GoTaq Green Master Mix (Promega), 2 μL diluted cDNA, and 0.2 μM sense/antisense primers. The thermal cycle was 5 min at 95°C, followed by 45 cycles of 15 sec at 95°C, 30 sec at 55°C, and 30 sec at 72°C. The primer sequences of early growth response protein 3 (EGR3) were derived from [Terasaka et al. (2004)]. We designed the primers of internal gene β-actin and trefoil factor 1 (TFF1; pS2) with Primer Premier 5 software (Premier Biosoft International, Palo Alto, CA, USA). The primer sequences were as follows: for β-actin (NM_001101), 5´-CACTCT[…]TCCTTCC-3´ (forward) and 5´-[…][…]-3´ (reverse); for EGR3 (NM_004430), 5´-CCATGATTC[…]-3´ (forward) and 5´-GTGGATCTGCTTGTCTTTGAATG-3´ (reverse); and for TFF1 (NM_003225), 5´-AGAAGCG […]-3´ (forward) and 5´-[…][…]-3´ (reverse). The quantification of target gene expression was based on a comparative cycle threshold (Ct) value. We normalized the expression level of each target gene to its reference gene β-actin. The fold change of the target genes was analyzed by the 2^−ΔΔCt method ([Livak and Schmittgen 2001]). We used melting curve analysis and agarose gel electrophoresis to verify the correct PCR products.

[3] = tested on: EGR3; assay: Expression of estrogen-responsive gene EGR3 (quantitative RT-PCR); format: cell-based, Human; conditions: MCF-7 cells, 48 hr, vs 0.1% ethanol; 50 μM PFBI, PFHxI, PFOI, PFBDI, PFOA, PFOC, PFOB, 1-iodohexane, 4:2 FTI, 6:2 FTI; 40 μM PFDI, PFDoI, PFODI, 8:2 FTI, 10:2 FTI; 20 μM PFHxDI; 100 pM E2
Protocol: as §5, §6

[4] = tested on: gap junction intercellular communication; design: method as in Hu et al. 2002; Upham et al. 1998; conditions: ref Hu et al. 2002; Upham et al. 1998; cited from earlier work
[5] = molecular target: T1, ER (Homo sapiens, UniProt P03372); assay: MVLN assay (estrogen-responsive luciferase reporter transactivation); format: cell-based; conditions: for MVLN assay Maximum induction (%): percentage of the maximum induction (luciferase) of tested compound to that of E2, 2 days exposure; for Luciferase induction / estrogenic effect in the MVLN assay (in words): within the tested concentration ranges
T1 construct: This cell line was stably transfected with the luciferase reporter gene and estrogen-responsive element derived from the Xenopus vitellogenin A2 gene; endogenous in cells; host or cells: MVLN cells (provided by J.P. Giesy)
T1 sequence (P03372 1-595): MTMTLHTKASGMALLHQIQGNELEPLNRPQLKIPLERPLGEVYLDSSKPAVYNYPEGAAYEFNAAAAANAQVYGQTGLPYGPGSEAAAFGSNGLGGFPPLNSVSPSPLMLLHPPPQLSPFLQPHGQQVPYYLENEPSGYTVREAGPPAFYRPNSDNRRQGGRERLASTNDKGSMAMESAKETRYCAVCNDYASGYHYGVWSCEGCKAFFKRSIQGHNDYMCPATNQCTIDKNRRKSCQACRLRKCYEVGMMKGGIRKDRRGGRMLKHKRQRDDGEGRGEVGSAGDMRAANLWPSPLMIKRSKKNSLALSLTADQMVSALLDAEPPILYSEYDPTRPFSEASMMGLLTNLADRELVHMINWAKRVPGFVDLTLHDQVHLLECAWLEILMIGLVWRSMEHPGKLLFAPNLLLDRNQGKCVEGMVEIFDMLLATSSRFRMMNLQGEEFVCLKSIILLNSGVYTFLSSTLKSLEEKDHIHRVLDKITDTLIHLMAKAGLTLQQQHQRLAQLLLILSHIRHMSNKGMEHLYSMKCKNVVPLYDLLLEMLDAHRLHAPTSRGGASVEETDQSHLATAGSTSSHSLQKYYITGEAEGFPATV
Protocol: as §1
MVLN assay. The MVLN cell line was kindly provided by J.P. Giesy (Michigan State University, East Lansing, MI, USA). This cell line was stably transfected with the luciferase reporter gene and estrogen-responsive element derived from the Xenopus vitellogenin A2 gene. […] Cells were seeded in the interior 60 wells of a 96-well ViewPlate (Packard Instrument Company, Boston, MA, USA) at a density of 7 × 10^4 cells/well, starved in SF medium for 48 hr, and exposed to test compounds for 2 days. […] Luciferase activity was measured with the LucLite kit (Packard Instruments) according to the manufacturer’s protocol. We measured luminescence by microplate reader (Varioskan Flash) and integrated the luminescence signal for 10 sec. Total protein content was measured by the Bradford assay (Tiangen, Beijing, China) to normalize luminescent units. The results are given as relative luminescent unit per microgram protein. The maximal induction of positive control (corrected for solvent control, 0.1–0.2% ethanol) was set as 100%, and the responses of other chemicals were converted to a percentage of the maximum level. Three replicates were used in each experiment. The cytotoxicity of tested chemicals was examined by WST-1 kit in parallel and routinely observed under microscope to identify the exposure concentration range.
as §2, §3, §4
EC50 values were calculated from this nonlinear regression model. EC20 were calculated as
ECx = [x/(100 – x)]^(1/Hill slope) × EC50, [2]

[6] = tested on: vitellogenin; design: method as in Ishibashi et al. 2008; conditions: male medaka fish; ref Ishibashi et al. 2008; cited from earlier work
[7] = tested on: vitellogenin; design: method as in Liu et al. (2007); conditions: primary cultured tilapia hepatocytes; ref Liu et al. (2007); cited from earlier work

SMILES | E-screen Maximum induction (%) [1] | Proliferation / estrogenic effect in the E-screen assay (in words) [1] | TFF1 mRNA expression, fold up-regulation [2] | EGR3 mRNA expression, fold up-regulation [3] | Inhibition of gap junction intercellular communication [4] | MVLN assay Maximum induction (%) [5] | Luciferase induction / estrogenic effect in the MVLN assay (in words) [5] | Vitellogenin induction [6] | Vitellogenin expression [7]
FC(F)(F)C(F)(F)C(F)(F)C(F)(F)I [PFBI, 1-iodoperfluorobutane] | NDd (The maximum relative proliferation effect was < 7%) | did not show proliferation effects | did not affect the expression | did not affect the expression |  |  |  |  | 
O=S(=O)(O)C(F)(F)C(F)(F)C(F)(F)C(F)(F)F [perfluorobutanesulfonate] |  |  |  |  | did not show effects |  |  |  | 
CCCCCCI [1-Iodohexane, reference compound] | NDd (The maximum relative proliferation effect was < 7%) | negative results | did not affect the expression | did not affect the expression |  | NDe (The maximum relative luciferase activity was < 5%) | negative results |  | 
FC(F)(F)C(F)(F)C(F)(F)C(F)(F)C(F)(F)C(F)(F)C(F)(F)C(F)(F)C(F)(F)C(F)(F)C(F)(F)C(F)(F)I [PFDoI, 1-iodoperfluorododecane] | NDd (The maximum relative proliferation effect was < 7%) | did not show proliferation effects | did not affect the expression | did not affect the expression |  |  |  |  | 
FC(F)C(F)(F)C(F)(F)C(F)(F)C(F)(F)C(F)(F)C(F)(F)C(F)(F)F [PFOC, 1H-perfluorooctane, reference compound] | NDd (The maximum relative proliferation effect was < 7%) | negative results | did not affect the expression | did not affect the expression |  | NDe (The maximum relative luciferase activity was < 5%) | negative results |  | 
FC(F)(F)C(F)(F)C(F)(F)C(F)(F)C(F)(F)C(F)(F)C(F)(F)C(F)(F)C(F)(F)C(F)(F)I [PFDI, 1-iodoperfluorodecane] | NDd (The maximum relative proliferation effect was < 7%) | did not show proliferation effects | did not affect the expression | did not affect the expression |  |  |  |  | 
O=S(=O)(O)C(F)(F)C(F)(F)C(F)(F)C(F)(F)C(F)(F)C(F)(F)F [perfluorohexanesulfonate] |  |  |  |  | did not show effects |  |  |  | 
FC(F)(F)C(F)(F)C(F)(F)C(F)(F)C(F)(F)C(F)(F)C(F)(F)C(F)(F)Br [PFOB, 1-bromoperfluorooctane, reference compound] | NDd (The maximum relative proliferation effect was < 7%) | negative results | did not affect the expression | did not affect the expression |  | NDe (The maximum relative luciferase activity was < 5%) | negative results |  | 
O=S(=O)(O)C(F)(F)C(F)(F)C(F)(F)C(F)(F)C(F)(F)C(F)(F)C(F)(F)C(F)(F)F [PFOS, perfluorooctane sulfonate] |  |  |  |  | significantly inhibits |  |  | did not | induced
O=C(O)C(F)(F)C(F)(F)C(F)(F)C(F)(F)C(F)(F)C(F)(F)C(F)(F)F [PFOA, perfluorooctanoic acid, reference compound] | NDd (The maximum relative proliferation effect was < 7%) | negative results; also recorded: did not show proliferation effects |  |  |  |  |  | did not | induced
